Laboratory results: patent publication US11141490B2, “Antibody-drug conjugates based on gold compounds” (Research Foundation of the City University of New York, priority 2018, dated 2021)
Values joined by “and” are separate entries in the source; they are usually repeats but may differ in a detail not shown here. Equal values may be shown once.

What was measured:
[1] = tested on: BT-474 cells; assay: Cell viability assay (PrestoBlue), BT-474; assay type: cell-based, human; settings: BT-474, 72 h
Description: (§1) Cell viability assays were carried out to investigate the anti-proliferative effect of the AGCs. […] Auranofin was used for comparative purposes. […] Cells were incubated with the compounds for 72 hours and viability was assessed with Presto Blue. […] As mentioned before, linkers bring considerable advantages in terms of ADC stability.
(§2) Cell viability analysis for all compounds and AGCs described.
(§3) MCF7, MCF10A and BT-474 were obtained from the American Type Culture Collection (ATCC) (Manassas, Va.) and cultured in Dulbecco's modified Eagle's medium (DMEM) (Mediatech) supplemented with 10% FBS, 1% NEAA and 1% penicillin-streptomycin (MCF7 AND MCF1 OA) or DME HG/F12K, NEAA, 2 mM glutamine, 10% FBS/PS and incubated at 37° C. and 5% CO2 in a humidified incubator.
(§4) After 72 h, cell viability was determined by means of the colorimetric cell viability assay PrestoBlue (Invitrogen, Carlsbad, Calif.) according to the manufacturer's intructions. EC50 were fit using GraphPad Prism 7 to best match the experimental data.
(§5) Tables 3 and Table 4 show EC50 Values (μM) in MCF7, MCF10A and BT474 cell lines determined with [AuCl(PPh3)] (DMF), [Au(mba)(PPh3)]

[2] = tested on: MCF-7 cells; assay: Cell viability assay (PrestoBlue), MCF-7; assay type: cell-based, human; settings: MCF-7, 72 h
Description: as §1, §2, §3, §4, §5

[3] = tested on: MCF-10A cells; assay: Cell viability assay (PrestoBlue), MCF-10A; assay type: cell-based, human; settings: MCF-10A non-cancerous breast cell line, 72 h
Description: as §1, §2, §3, §4, §5

[4] = humans, rheumatoid arthritis medication; cited from earlier work
[5] = DMSO solution at room temperature; cited from earlier work

Row | Compound | EC50 [1] [µM] | EC50 [2] | EC50 [3] [µM] | patients affected by most severe side effects (diarrhea and rashes) [4] | time stable in solution [5] [h]
1 | [Cl][Au].c1ccc(P(c2ccccc2)c2ccccc2)cc1 [[AuCl(PPh3)], reference compound] | 3.32 ± 0.1 | 3.6 µM and 3.57 µM | 18.9 ± 1.3 | – | –
2 | CC[P](CC)(CC)=[Au][S][C@@H]1O[C@H](COC(C)=O)[C@@H](OC(C)=O)[C@H](OC(C)=O)[C@H]1OC(C)=O [AF, [(2R,3R,4S,5R,6S)-3,4,5-tris(acetyloxy)-6-{[(triethyl-λ5-phosphanylidene)aurio]sulfanyl}-oxan-2-yl]methyl acetate] | – | – | – | 26-40% | > 72
3 | [Au(mba)(PPh3)] [reference compound] | 3.51 ± 0.16 | 2.4 µM and 2.36 µM | 5.52 ± 0.36 | – | –
